Laboratory results from patent publication US20180044672A1, “Pericyte Long Non-Coding RNAs” (Johann Wolfgang Goethe-Universität Frankfurt am Main, priority 2015, published 2018).
“Also recorded” adds a separate entry of the source.

Key:
[1] = system: human pericytes (PC); test: PC viability by MTT assay
[2] = PC viability by MTT assay; settings: human
[3] = system: TYKRIL; test: TYKRIL expression in human pericytes by qRT-PCR; type: cell-based; settings: for TYKRIL expression levels in PC: LNA GapmeR 50 nmol/l, 48 h after transfection, vs scrambled control
Description: (§1) Cells were grown to 60-80% confluency and were transfected for 4 hours in Optimem Medium using Lipfectamine (both from Life technologies, Carlsbad, Calif., USA) with 50 nmol/l LNA GapmeR (Exiqon, Vedbaek, Denmarkt) according to the manufacturer's instructions. Controls were transfected with scrambled LNA GapmeR control. Four hours after LNA Gapmer Transfection, Optimem Medium was exchanged with normal cell culture medium. All experimental manipulations were carried out 48 hours after transfection.
(§2) Total RNA from PC was isolated using RNeasy Mini Kits (Qiagen, Hilden, Germany) as recommended by the manufacturer including a DNA digestion step. Nuclear and cytosolic fractions were prepared as documented elsewhere 34. 500-1000 ng RNA was reversely transcribed with random hexamer primers (ThermoScientific, Waltham, USA) by MulV reverse transcriptase (Lifetechnologies) in 40 μl reaction volume. Fast SYBR green or SYBR green (Applied Biosystems, Forster City, USA) and cDNA were used for qRT-PCR. A Viia7 or StepOnePlus from Applied Biosystems was used. CT values were normalized against ribosomal RPLP0. Relative gene expression levels were determined by the formula: 2-deltaCT; deltaCT=CTtarget−CTcontrol.

[4] = system: PDGFRβ; test: PDGFRβ expression in human pericytes by qPCR and immunoblotting; type: cell-based; settings: for PDGFRβ mRNA (qPCR) / PDGFRβ protein levels (immunoblotting): upon TYKRIL silencing by LNA GapmeRs
Description: as §1, §2
Standard immunofluorescent staining procedures were carried out as described before 35-37. In brief, cells were washed with PBS, fixed in ice cold acetone for about 5 minutes. After washing cells were blocked for 2 hours at room temperature with 5% donkey serum (Dianova, Hambur, Germany), 0.3% Triton X-100 in PBS. Primary antibodies were incubated overnight in PBS containing 2% BSA, 0.1% Triton X-100. Secondary antibodies and Hoechst (Lifetechnologies, 1/1000) were incubated in 2% BSA, 0.1% azide for another 2 hours. For SDS Page protein isolation cells were washed once with ice-cold PBS, snap frozen in liquid nitrogen and RIPA-buffer (Thermo Scientific, Rockford, USA) supplemented with protease inhibitor (Roche Diagnostics) was applied. Cells were then scraped off with an ice cold rubber policeman and incubated for 45 minutes on ice under agitation. Subsequently probes were centrifuged for 10 minutes at 5000 RPM at 4° C. The supernatant was transferred into ice cold vials and protein concentration was determined by performing a Bradford assay with RotiQuant (Carl Roth, Karlsruhe, Germany) according to the manufacturer's instructions. Protein samples were mixed with an equal volume of 2× Laemmli buffer (Sigma Aldrich). Gels (Mini-Protean TGX, BioRad) were loaded with 20-30 μg protein per lane. SDS page was performed for 1 hour at 100V in […] (BioRad). Western Blotting was performed using a Pierce G2 Fast Blotter according to the manufacturer's instructions (ThermoScientific).

[5] = system: human pericytes; test: RNA Seq upon TYKRIL knockdown in pericytes; type: cell-based; settings: upon TYKRIL knockdown with LNA GapmeRs
Description: RNA deep sequencing was performed by analyzing ribosomal depleted total RNA from human Pericytes. RNA was isolated using a RNeasy Mini Kit (Qiagen) according to the manufacturer's instructions including DNA digestion. Subsequently RNA was fragmented and primed for cDNA synthesis. Libraries were created using a TruSeq RNA Ribo-Zero Globin kit (from Illumina) as recommended by the manufacturer. A Illumina HiSeq 2000 flowcell was used for sequencing. lncRNA annotation was done based on the NONCODE database (noncode.org).

[6] = system: mTYKRIL; test: Murine TYKRIL knockdown in vivo, mTYKRIL in organs; design: species or system mouse; settings: mice, 20 mg/kg intraperitoneally, single shot, 48 h
Description: (§3) HPLC purified. LNA GapmeRs were injected intraperitoneally at a dosage of 20 mg/kg bodyweight. 48 hours after injection, mice were sacrificed by isoflurane overdose and cardially perfused with PBS at a steady flow of 9 ml/min. Subsequently organs were removed and snap forzen for RNA and protein isolation.

[7] = system: PDGFRβ; test: Murine TYKRIL knockdown in vivo, PDGFRβ in organs; design: species or system mouse; settings: mice, 20 mg/kg intraperitoneally, single shot, 48 h
Description: as §3

[8] = p53 gain of function by doxorubicin treatment

## Cc1ccc(NC(=O)c2ccc(CN3CCN(C)CC3)cc2)cc1Nc1nccc(-c2cccnc2)n1 [Imatinib]
[1]; imatinib 1 μM, 24 h, compared with solvent PBS
  PC viability (MTT), in words: significantly decreased PC viability
[1]; imatinib upon TYKRIL silencing, compared with scramble control transfected PC
  PC viability (MTT), in words: significantly more reduced
[2]; human pericytes (PC)
  cytotoxicity at 24 h, 1 μM: ~20%
[2]; human pericytes (PC) with TYKRIL silenced by LNA GapmeR
  cytotoxicity: ~45%

## COc1cccc2c1C(=O)c1c(O)c3c(c(O)c1C2=O)C[C@@](O)(C(=O)CO)C[C@@H]3O[C@H]1C[C@H](N)[C@H](O)[C@H](C)O1 [doxorubicin, reference compound]
[3]; [8]
  TYKRIL expression: loss of TYKRIL; also recorded: downregulation
[4]; [8]
  PDGFRβ on RNA level: downregulation of PDGFRβ; also recorded: significant decline
  PDGFRβ on protein level: downregulation of PDGFRβ; also recorded: significant decline

## LNA#1: LNA GapmeR against human TYKRIL, 5′-3′: AGAGGTGATTAAGGT (LNA gapmer: LNA flanks around DNA gap, pattern and linkages not given here)
[3]
  TYKRIL expression levels in PC: significant reduction of TYKRIL
[5]
  Pericyte differentiation state by RNA Seq: de-differentiation of Pericytes
[4]
  PDGFRβ mRNA (qPCR): loss of PDGFRβ
  PDGFRβ protein levels (immunoblotting): loss of PDGFRβ

## LNA#3: LNA GapmeR against human TYKRIL, 5′-3′: AGTGAAGGACAGAGGC (LNA gapmer: LNA flanks around DNA gap, pattern and linkages not given here)
[3]
  TYKRIL expression levels in PC: significant reduction of TYKRIL
[5]
  Pericyte differentiation state by RNA Seq: de-differentiation of Pericytes
[4]
  PDGFRβ mRNA (qPCR): loss of PDGFRβ
  PDGFRβ protein levels (immunoblotting): loss of PDGFRβ

## mLNA#4: murine TYKRIL LNA Gapmer, SEQ ID NO: 12, GTCTGCACTTAATTAA (LNA gapmer, pattern and linkages not given here; listed as Mus musculus)
[6]
  mTYKRIL (qPCR) in heart: downregulation
[6]; 20 mg/kg
  mTYKRIL in kidneys: decreased; also recorded: downregulation
  mTYKRIL in liver: decreased; also recorded: downregulation
  mTYKRIL in lungs: decreased; also recorded: downregulation
  mTYKRIL in spleen: decreased; also recorded: downregulation
[7]
  PDGFRβ (qPCR) in heart: downregulation
  PDGFRβ protein level in heart: PDGFRβ loss
[7]; 20 mg/kg
  PDGFRβ in kidneys: decreased; also recorded: downregulation
  PDGFRβ in liver: decreased; also recorded: downregulation
  PDGFRβ in lungs: decreased; also recorded: downregulation
  PDGFRβ in spleen: decreased; also recorded: downregulation
